Legend:
[1] = target: T1, late hNav1.5 (Homo sapiens, UniProt Q14524); assay: Automated patch clamp, late hNav1.5 current block (ATX-II activated); format: cell-based
T1 construct: expressed in transfected cells; host or cells: HEK293 or CHO, depending on site
Description: However, all external solutions contained 30 nM ATX-II in order to activate late current. Late current was measured at its maximum during the repolarizing ramp.
(§1) Concentration-response relationships for each test article were independently investigated, i.e., each cell received only one test article, typically evaluating multiple concentrations in a cumulative fashion (lowest to highest concentrations). However, some platforms tested only one concentration per well. Each concentration response was based on a minimum of four concentrations, with a minimum of three wells used for each concentration. In cases of high variability, more cells per concentration were recorded. Prior to drug addition, cells received an addition of vehicle to measure non-test article-related effects such as addition artifacts. At the end of the experiment, a supramaximal concentration of a known inhibitory reference compound was applied to assess leak current and appropriate responsiveness of the test system.
(§2) The steady state current at each concentration was used to determine the concentration-response relationships. Mean concentration-response data were fitted to a standard sigmoidal four-parameter logistic equation (GraphPad Prism 7; GraphPad Inc., La Jolla, CA) of the form: Y=Bottom+(Top−Bottom)/(1+10^∧(LogIC50−X)∗HillSlope) where Y is the current inhibition (in % of pre-drug control), X is the logarithm of drug concentration, and IC50 is the drug concentration producing half-maximal current inhibition. Curve fitting was performed using the following constraints: Top = 100%, Bottom = 0%, Hill Slope <2. No curve fitting was performed in cases with an obvious lack of a concentration-dependent current inhibition and/or small effect size (approximately ≤20%).

[2] = based on CiPA evaluations; cited from earlier work
[3] = target: hERG (Homo sapiens, UniProt Q12809); assay: Automated patch clamp, hERG current block (consensus step-ramp protocol); settings: for hERG K+ current inhibition, Mean, at maximal concentration: max conc [mol/L]: bep 3.00E-07, cpz 3.00E-06, cis 3.00E-07, dil 1.00E-04, dof 1.00E-07, mex 1.00E-04, ond 1.00E-05, qui 1.00E-05, ran 1.00E-04, sot 3.00E-04, ter 3.00E-07, ver 1.00E-06; for hERG K+ current inhibition, Mean, at minimal concentration: min conc [mol/L]: bep 1.00E-08, cpz 1.00E-07, cis 1.00E-09, dil 3.00E-06, dof 1.00E-09, mex 1.00E-06, ond 3.00E-07, qui 1.00E-07, ran 3.00E-06, sot 1.00E-05, ter 1.00E-08, ver 3.00E-08
[4] = target: T2, peak hNav1.5 (Homo sapiens, UniProt Q14524); assay: Automated patch clamp, peak hNav1.5 current block; format: cell-based
T2 construct: expressed in transfected cells; host or cells: HEK293 or CHO, depending on site
Description: Peak current was measured during the depolarizing step to −15 mV. Leak current was measured after applying a saturating concentration of a blocker such as lidocaine (2 mM) at the end of each experiment to completely block hNav1.5 current.
as §1, §2

[5] = s03_p2, HEK293, room temperature
[6] = s16_p3, HEK293, room temperature

hERG, sequence (Q12809 whole entry): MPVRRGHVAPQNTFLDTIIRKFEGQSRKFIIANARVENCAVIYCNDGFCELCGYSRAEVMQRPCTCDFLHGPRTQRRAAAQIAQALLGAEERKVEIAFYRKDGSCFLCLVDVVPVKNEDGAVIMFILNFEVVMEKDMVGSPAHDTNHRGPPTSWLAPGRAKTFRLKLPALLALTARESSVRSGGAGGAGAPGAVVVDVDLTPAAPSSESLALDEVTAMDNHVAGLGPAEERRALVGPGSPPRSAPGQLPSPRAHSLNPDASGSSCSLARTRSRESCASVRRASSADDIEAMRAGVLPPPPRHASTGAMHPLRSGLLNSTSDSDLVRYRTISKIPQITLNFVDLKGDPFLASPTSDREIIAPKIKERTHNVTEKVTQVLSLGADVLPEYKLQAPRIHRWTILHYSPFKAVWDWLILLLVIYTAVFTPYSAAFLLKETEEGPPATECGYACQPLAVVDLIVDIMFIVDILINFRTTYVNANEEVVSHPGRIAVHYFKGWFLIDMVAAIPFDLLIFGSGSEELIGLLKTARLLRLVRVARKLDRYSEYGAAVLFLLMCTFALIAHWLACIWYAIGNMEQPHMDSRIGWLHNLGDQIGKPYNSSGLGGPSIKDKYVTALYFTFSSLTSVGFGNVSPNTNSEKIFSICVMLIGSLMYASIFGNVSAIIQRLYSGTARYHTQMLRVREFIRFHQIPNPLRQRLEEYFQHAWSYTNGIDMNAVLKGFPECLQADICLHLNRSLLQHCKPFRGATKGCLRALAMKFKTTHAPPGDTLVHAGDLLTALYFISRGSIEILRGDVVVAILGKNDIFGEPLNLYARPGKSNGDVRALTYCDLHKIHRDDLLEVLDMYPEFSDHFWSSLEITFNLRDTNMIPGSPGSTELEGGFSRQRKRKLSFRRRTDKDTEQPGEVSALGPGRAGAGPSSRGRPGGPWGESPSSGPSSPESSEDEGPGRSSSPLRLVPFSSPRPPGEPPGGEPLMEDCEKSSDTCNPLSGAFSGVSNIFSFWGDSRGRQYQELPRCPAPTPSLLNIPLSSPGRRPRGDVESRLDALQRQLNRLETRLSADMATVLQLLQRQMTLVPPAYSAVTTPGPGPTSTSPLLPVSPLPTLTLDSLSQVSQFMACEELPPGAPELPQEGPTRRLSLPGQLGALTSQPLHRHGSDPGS
T2 sequence (Q14524 whole entry): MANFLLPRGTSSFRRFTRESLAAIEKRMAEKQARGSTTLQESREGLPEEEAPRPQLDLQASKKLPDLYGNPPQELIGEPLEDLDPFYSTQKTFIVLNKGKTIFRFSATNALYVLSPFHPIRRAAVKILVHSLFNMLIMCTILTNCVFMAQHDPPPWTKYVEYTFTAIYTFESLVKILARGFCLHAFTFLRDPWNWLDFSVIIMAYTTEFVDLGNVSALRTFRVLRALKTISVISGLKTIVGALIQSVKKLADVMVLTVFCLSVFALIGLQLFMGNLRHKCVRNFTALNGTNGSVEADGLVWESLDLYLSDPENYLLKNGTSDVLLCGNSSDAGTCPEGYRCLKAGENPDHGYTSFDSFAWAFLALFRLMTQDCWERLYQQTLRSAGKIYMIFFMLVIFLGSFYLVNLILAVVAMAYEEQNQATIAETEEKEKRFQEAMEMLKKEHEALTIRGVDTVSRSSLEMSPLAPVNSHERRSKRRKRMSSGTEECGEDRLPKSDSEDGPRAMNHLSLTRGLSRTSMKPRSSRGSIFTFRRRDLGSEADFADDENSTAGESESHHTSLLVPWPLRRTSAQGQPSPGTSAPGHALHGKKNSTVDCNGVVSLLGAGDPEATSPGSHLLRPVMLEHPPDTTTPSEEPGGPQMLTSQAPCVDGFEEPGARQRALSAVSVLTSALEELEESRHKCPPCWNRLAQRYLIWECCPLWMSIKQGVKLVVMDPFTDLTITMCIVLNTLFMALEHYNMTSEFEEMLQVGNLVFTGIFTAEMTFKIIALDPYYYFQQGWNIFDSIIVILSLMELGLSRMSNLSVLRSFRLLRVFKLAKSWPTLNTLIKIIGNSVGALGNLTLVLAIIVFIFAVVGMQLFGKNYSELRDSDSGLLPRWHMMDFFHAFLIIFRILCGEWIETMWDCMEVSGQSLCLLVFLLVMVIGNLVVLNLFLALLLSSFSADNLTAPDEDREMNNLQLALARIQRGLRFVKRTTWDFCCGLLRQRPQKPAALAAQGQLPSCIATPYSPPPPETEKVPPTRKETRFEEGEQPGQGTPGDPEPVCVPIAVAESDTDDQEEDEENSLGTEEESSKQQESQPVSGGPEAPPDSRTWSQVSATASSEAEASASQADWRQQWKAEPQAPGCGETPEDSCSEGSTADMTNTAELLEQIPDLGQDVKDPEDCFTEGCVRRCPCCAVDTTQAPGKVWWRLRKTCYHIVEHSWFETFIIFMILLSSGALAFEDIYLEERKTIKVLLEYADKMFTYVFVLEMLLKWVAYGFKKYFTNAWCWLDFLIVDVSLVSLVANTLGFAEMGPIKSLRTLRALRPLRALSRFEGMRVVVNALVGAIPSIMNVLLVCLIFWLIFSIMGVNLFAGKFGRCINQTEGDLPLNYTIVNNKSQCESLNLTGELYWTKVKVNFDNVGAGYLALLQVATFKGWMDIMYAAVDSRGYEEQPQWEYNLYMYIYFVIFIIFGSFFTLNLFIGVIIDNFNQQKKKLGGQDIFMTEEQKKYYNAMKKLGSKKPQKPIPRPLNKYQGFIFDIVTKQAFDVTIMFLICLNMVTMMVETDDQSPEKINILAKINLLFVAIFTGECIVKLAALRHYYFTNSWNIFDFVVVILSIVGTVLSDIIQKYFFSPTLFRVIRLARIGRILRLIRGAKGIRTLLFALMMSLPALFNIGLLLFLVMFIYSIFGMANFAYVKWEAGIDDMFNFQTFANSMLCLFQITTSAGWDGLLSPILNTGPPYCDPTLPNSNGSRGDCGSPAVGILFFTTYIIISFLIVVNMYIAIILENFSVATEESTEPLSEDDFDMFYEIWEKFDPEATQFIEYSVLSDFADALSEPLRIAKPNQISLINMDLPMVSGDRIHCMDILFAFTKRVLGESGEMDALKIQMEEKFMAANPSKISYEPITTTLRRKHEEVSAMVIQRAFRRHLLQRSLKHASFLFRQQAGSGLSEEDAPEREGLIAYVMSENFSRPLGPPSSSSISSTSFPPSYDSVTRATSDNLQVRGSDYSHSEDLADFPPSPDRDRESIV

Cc1cccc(C)c1OCC(C)N (stereo not shown) [mex, mexiletine]
nH, Hill slope, late hNav1.5 inhibition ([1]; site_platform s06_p4): 0.97 | Late hNav1.5 Na+ current inhibition, Mean ([1]; site_platform s06_p4, 1.00E-04 mol/L): 96.2% | Late hNav1.5 Na+ current inhibition, Mean ([1]; site_platform s06_p4, 1.00E-06 mol/L): 18.9% | nH, Hill slope, late hNav1.5 inhibition ([1]; site_platform s07_p6): 1.16 | Late hNav1.5 Na+ current inhibition, Mean ([1]; site_platform s07_p6, 1.00E-04 mol/L): 89.6% | Late hNav1.5 Na+ current inhibition, Mean ([1]; site_platform s07_p6, 1.00E-06 mol/L): 5.5% | nH, Hill slope, late hNav1.5 inhibition ([1]; site_platform s13_p2): 0.53 | Late hNav1.5 Na+ current inhibition, Mean ([1]; site_platform s13_p2, 1.00E-04 mol/L): 76.8% | Late hNav1.5 Na+ current inhibition, Mean ([1]; site_platform s13_p2, 1.00E-06 mol/L): 26.4% | nH, Hill slope, late hNav1.5 inhibition ([1]; site_platform s14_p1): 4.08 | Late hNav1.5 Na+ current inhibition, Mean ([1]; site_platform s14_p1, 1.00E-04 mol/L): 98.8% | Late hNav1.5 Na+ current inhibition, Mean ([1]; site_platform s14_p1, 1.00E-06 mol/L): -15.4% | TdP Risk Category [2]: Low | IC50 ([3]; hERG K+ current log IC50, s01_p1, CHO, 23 °C): 138 µM | IC50 ([3]; hERG K+ current log IC50, s02_p2, HEK293, 22–26 °C): 110 µM | IC50 ([3]; hERG K+ current log IC50, s03_p2, HEK293, room temperature): 20.4 µM | IC50 ([3]; hERG K+ current log IC50, s04_p3, CHO, room temperature): 47.9 µM | IC50 ([3]; hERG K+ current log IC50, s15_p1, HEK293, 22–23 °C): 24 µM | IC50 ([3]; hERG K+ current log IC50, s16_p3, HEK293, room temperature): 85.1 µM | inhibition at 0.0001 mol/L ([3]; human, hERG K+ current inhibition, Mean, site_platform s07_p5, 1.00E-04 mol/L): 65% | inhibition at 1e-06 mol/L ([3]; human, hERG K+ current inhibition, Mean, site_platform s07_p5, 1.00E-06 mol/L): -10.5% | inhibition at 4 min, 0.0001 mol/L ([3]; human, hERG K+ current inhibition, Mean, site_platform s10_p3, 1.00E-04 mol/L): 42% | inhibition at 4 min, 1e-06 mol/L ([3]; human, hERG K+ current inhibition, Mean, site_platform s10_p3, 1.00E-06 mol/L): -3.5% | inhibition at 7 min, 0.0001 mol/L ([3]; human, hERG K+ current inhibition, Mean, site_platform s11_p1, 1.00E-04 mol/L): 73.7% | inhibition at 0.0001 mol/L ([3]; human, hERG K+ current inhibition, Mean, site_platform s12_p2, 1.00E-04 mol/L): 56.6% | inhibition at 1e-06 mol/L ([3]; human, hERG K+ current inhibition, Mean, site_platform s12_p2, 1.00E-06 mol/L): 0.2% | inhibition at 0.0001 mol/L ([3]; human, hERG K+ current inhibition, Mean, site_platform s13_p2, 1.00E-04 mol/L): 78.6% | inhibition at 1e-06 mol/L ([3]; human, hERG K+ current inhibition, Mean, site_platform s13_p2, 1.00E-06 mol/L): 7.7% | inhibition at 7 min, 0.0001 mol/L ([3]; human, hERG K+ current inhibition, Mean, site_platform s14_p1, 1.00E-04 mol/L): 60.2% | inhibition at 7 min, 1e-06 mol/L ([3]; human, hERG K+ current inhibition, Mean, site_platform s14_p1, 1.00E-06 mol/L): 10.8% | inhibition at 7 min, 1e-06 mol/L ([3]; human, recombinant cells expressing hERG, hERG K+ current inhibition, Mean, site_platform s11_p1, 1.00E-06 mol/L): 29.4% | IC50 ([3]; log IC50, hERG K+ current inhibition, site_platform s07_p5): 72.4 µM | IC50 ([3]; log IC50, hERG K+ current inhibition, site_platform s10_p3): 126 µM | IC50 ([3]; log IC50, hERG K+ current inhibition, site_platform s11_p1): 15.8 µM | IC50 ([3]; log IC50, hERG K+ current inhibition, site_platform s12_p2): 77.6 µM | IC50 ([3]; log IC50, hERG K+ current inhibition, site_platform s13_p2): 34.7 µM | IC50 ([3]; log IC50, hERG K+ current inhibition, site_platform s14_p1): 63.1 µM | hERG K+ current nH, Hill slope ([3]; s01_p1, CHO, 23 °C): 0.78 | hERG K+ current inhibition, Mean, at maximal concentration ([3]; s01_p1, CHO, 23 °C): 46.1% | hERG K+ current inhibition, Mean, at minimal concentration ([3]; s01_p1, CHO, 23 °C): 0.7% | hERG K+ current nH, Hill slope ([3]; s02_p2, HEK293, 22–26 °C): 0.95 | hERG K+ current inhibition, Mean, at maximal concentration ([3]; s02_p2, HEK293, 22–26 °C): 48.2% | hERG K+ current inhibition, Mean, at minimal concentration ([3]; s02_p2, HEK293, 22–26 °C): 1.0% | hERG K+ current nH, Hill slope [3, 5]: 0.95 | hERG K+ current inhibition, Mean, at maximal concentration [3, 5]: 86.8% | hERG K+ current inhibition, Mean, at minimal concentration [3, 5]: 14.6% | hERG K+ current nH, Hill slope ([3]; s04_p3, CHO, room temperature): 0.81 | hERG K+ current inhibition, Mean, at maximal concentration ([3]; s04_p3, CHO, room temperature): 67.4% | hERG K+ current inhibition, Mean, at minimal concentration ([3]; s04_p3, CHO, room temperature): 9.7% | hERG K+ current log IC50 ([3]; s05_p4, HEK293, 22–24 °C): -4.37 log mol/L | hERG K+ current nH, Hill slope ([3]; s05_p4, HEK293, 22–24 °C): 1.45 | hERG K+ current inhibition, Mean, at maximal concentration ([3]; s05_p4, HEK293, 22–24 °C): 75.7% | hERG K+ current nH, Hill slope ([3]; s15_p1, HEK293, 22–23 °C): 0.72 | hERG K+ current inhibition, Mean, at maximal concentration ([3]; s15_p1, HEK293, 22–23 °C): 74.6% | hERG K+ current inhibition, Mean, at minimal concentration ([3]; s15_p1, HEK293, 22–23 °C): 10.3% | hERG K+ current nH, Hill slope [3, 6]: 0.76 | hERG K+ current inhibition, Mean, at maximal concentration [3, 6]: 52.6% | hERG K+ current inhibition, Mean, at minimal concentration [3, 6]: 3.9% | hERG K+ current nH, Hill slope ([3]; s18_p1, CHO, 35 °C): 1.12 | hERG K+ current inhibition, Mean, at maximal concentration ([3]; s18_p1, CHO, 35 °C): 70.4% | hERG K+ current inhibition, Mean, at minimal concentration ([3]; s18_p1, CHO, 35 °C): -1.2% | hERG K+ current nH, Hill slope ([3]; s19_p3, CHO, room temperature): 0.84 | hERG K+ current inhibition, Mean, at maximal concentration ([3]; s19_p3, CHO, room temperature): 58.4% | hERG K+ current inhibition, Mean, at minimal concentration ([3]; s19_p3, CHO, room temperature): 4.2% | nH (Hill slope), hERG K+ current inhibition ([3]; site_platform s07_p5): 1.95 | nH (Hill slope), hERG K+ current inhibition ([3]; site_platform s10_p3): 1.32 | nH (Hill slope), hERG K+ current inhibition ([3]; site_platform s11_p1): 0.41 | nH (Hill slope), hERG K+ current inhibition ([3]; site_platform s12_p2): 1.12 | nH (Hill slope), hERG K+ current inhibition ([3]; site_platform s13_p2): 1.01 | nH (Hill slope), hERG K+ current inhibition ([3]; site_platform s14_p1): 0.63 | hNav1.5 IC50 variability (25/75 percentiles) ([4]; across sites and platforms): 4 fold | nH (Hill slope), peak hNav1.5 Na+ current inhibition ([4]; site_platform s01_p1): 0.31 | Peak hNav1.5 Na+ current inhibition, Mean ([4]; site_platform s01_p1, 1.00E-04 mol/L): 89.8%
